Key:
[1] = Thermal stability test (storage at 60° C.); type: physicochemical; conditions: p-Toluenesulfonate; for thermal stability: 60° C., one month, in words; for Purity (%): stored at 60° C.
Text: The purity of Form A was detected at 0, 10 and 30 days, which was based to deduce the thermal stability of Form A. The thermal stability of Form B and Form C were also deduced by this method.

[2] = Light stability test (illumination 4500 lx±500 lx); type: physicochemical; conditions: p-Toluenesulfonate; for light stability: 4500 lx±500 lx, one month, in words; for Purity (%): illumination 4500 lx±500 lx
Text: The purity of Form A was detected at 0, 10 and 30 days, which was based to deduce to the light stability of Form A. The light stability of Form B and Form C were also deduced by this method.

[3] = Hygroscopicity test (high moisture environment of 92.5%); type: physicochemical; conditions: p-Toluenesulfonate; for stability under the environment of high moisture: 92.5% moisture, one month, in words; for Purity (%): high moisture environment of 92.5%
Text: The purity of Form A was detected at 0, 10 and 30 days, which was based to deduce the hygroscopicity of Form A. The hygroscopicities of Form B and Form C were also deduced by this method.

[4] = test system: human ovarian cancer SKOV-3; experiment: Tumor-inhibitory effect on SKOV-3 transplanted to nude mouse; type: in vivo, BALB/cA nude mouse
Method: A tumor SKOV-3 in vigorous growth period was selected and cut into several uniform bits of a size of about 1.5 mm^3, which was inoculated subcutaneously to the right armpit of the BALB/cA nude mice using trocar under sterile conditions. The diameters of the transplanted tumors of nude mice were measured with a vernier caliper. The animals were grouped randomly when the tumors grew to a size of 80-100 mm^3. The tested animal group were intragastrically administrated through mouth as mentioned above once a day for 3 weeks continuously. The positive control drug MMC (Mitomycin) was intravenously administered once on the first day with a dose of 5 mg/kg. The negative control group were administered with 0.5% CMC-Na (Carboxymethyl Cellulose Sodium) with a dose of 0.2 mL/per mouse. The long axis (a) and the short axis (b) of the tumors were measured twice every week and the nude mice were weighed at the same time. According to the formula V=ab^2/2, the tumor volume (mm^3) could be calculated, based on which the relative tumor volume (RTV) was calculated (Calculation Formula: RTV=Vt/V0, wherein V0 represents the tumor volume measured at the grouping time of administration, and Vt represents the tumor volume measured each time). The relative tumor proliferation rate T/C (%) was chosen as the index to evaluate the anti-tumor activity, which can be calculated according to the following formula: T/C (%)=(TRTV/CRTV)×100
TRTV: RTV of the treated group; CRTV: RTV of the negative control group
V0 represents the tumor volume before the administration, and V21 represents the tumor volume after 3 weeks of continuous administration.
According to the experimental method mentioned above, the tumor-bearing nude mice, into which the human ovarian cancer SKOV-3, the human lung cancer Calu-3, and the human lung cancer A549 were transplanted respectively, were intragastrically administrated with Form B (100 mg/kg) of the present invention through mouth twice a day for 3 weeks continuously.
According to the experimental method mentioned above, the tumor-bearing nude mice, into which the human ovarian cancer SKQV-3, the human lung cancer Calu-3, and the human lung cancer A549 were transplanted respectively, were intragastrically administrated with Form C (100 mg/kg) of the present invention through mouth twice a day for 3 weeks continuously.

human lung cancer Calu-3 = experiment: Tumor-inhibitory effect on Calu-3 transplanted to nude mouse; type: in vivo, nude mice; conditions: 100 mg/kg ig twice a day, 3 weeks, p-Toluenesulfonate
Method: (§1) The diameters of the transplanted tumors of nude mice were measured with a vernier caliper. The animals were grouped randomly when the tumors grew to a size of 80-100 mm^3. […] The positive control drug MMC (Mitomycin) was intravenously administered once on the first day with a dose of 5 mg/kg. The negative control group were administered with 0.5% CMC-Na (Carboxymethyl Cellulose Sodium) with a dose of 0.2 mL/per mouse. The long axis (a) and the short axis (b) of the tumors were measured twice every week and the nude mice were weighed at the same time. […] RTV=Vt/V0, wherein V0 represents the tumor volume measured at the grouping time of administration, and Vt represents the tumor volume measured each time). The relative tumor proliferation rate T/C (%) was chosen as the index to evaluate the anti-tumor activity, which can be calculated according to the following formula: T/C (%)=(TRTV/CRTV)×100 TRTV: RTV of the treated group; CRTV: RTV of the negative control group The standard for evaluating the effectiveness: […]

human lung cancer A549 = experiment: Tumor-inhibitory effect on A549 transplanted to nude mouse; type: in vivo, nude mice; conditions: 100 mg/kg ig twice a day, 3 weeks, p-Toluenesulfonate
Method: as §1

[5] = Toxicity test of long-term administration; type: in vivo; conditions: SD rats, ig, 20, 50, 100, 500 or 800 mg/(kg·day), four weeks
Method: 80 healthy SD rats, male and weighed 200˜250 g, were grouped into 16 groups randomly, and were each intragastrically administered with Form A, B or C of the p-toluenesulfonate of the compound of formula (I) or a blank solvent (Five test groups with the dose of 20, 50, 100, 500 or 800 mg/(kg·day) and a solvent control group were set).

[6] = test system: human epidermoid squamous cancer cell A431; conditions: from WO 2007/082434; in words; cited from earlier work
[7] = test system: human breast cancer cell BT-474; conditions: from WO 2007/082434; in words; cited from earlier work
[8] = test system: human epidermoid squamous cancer cell A431; conditions: from WO 2007/082434; in words; cited from earlier work; remark: listed apart in the source
Erb-B2 kinase = Erb-B2 kinase (Homo sapiens, UniProt P04626); conditions: in vitro; from WO 2007/082434; in words; cited from earlier work
Erb-B2 kinase, sequence (P04626 23-1255): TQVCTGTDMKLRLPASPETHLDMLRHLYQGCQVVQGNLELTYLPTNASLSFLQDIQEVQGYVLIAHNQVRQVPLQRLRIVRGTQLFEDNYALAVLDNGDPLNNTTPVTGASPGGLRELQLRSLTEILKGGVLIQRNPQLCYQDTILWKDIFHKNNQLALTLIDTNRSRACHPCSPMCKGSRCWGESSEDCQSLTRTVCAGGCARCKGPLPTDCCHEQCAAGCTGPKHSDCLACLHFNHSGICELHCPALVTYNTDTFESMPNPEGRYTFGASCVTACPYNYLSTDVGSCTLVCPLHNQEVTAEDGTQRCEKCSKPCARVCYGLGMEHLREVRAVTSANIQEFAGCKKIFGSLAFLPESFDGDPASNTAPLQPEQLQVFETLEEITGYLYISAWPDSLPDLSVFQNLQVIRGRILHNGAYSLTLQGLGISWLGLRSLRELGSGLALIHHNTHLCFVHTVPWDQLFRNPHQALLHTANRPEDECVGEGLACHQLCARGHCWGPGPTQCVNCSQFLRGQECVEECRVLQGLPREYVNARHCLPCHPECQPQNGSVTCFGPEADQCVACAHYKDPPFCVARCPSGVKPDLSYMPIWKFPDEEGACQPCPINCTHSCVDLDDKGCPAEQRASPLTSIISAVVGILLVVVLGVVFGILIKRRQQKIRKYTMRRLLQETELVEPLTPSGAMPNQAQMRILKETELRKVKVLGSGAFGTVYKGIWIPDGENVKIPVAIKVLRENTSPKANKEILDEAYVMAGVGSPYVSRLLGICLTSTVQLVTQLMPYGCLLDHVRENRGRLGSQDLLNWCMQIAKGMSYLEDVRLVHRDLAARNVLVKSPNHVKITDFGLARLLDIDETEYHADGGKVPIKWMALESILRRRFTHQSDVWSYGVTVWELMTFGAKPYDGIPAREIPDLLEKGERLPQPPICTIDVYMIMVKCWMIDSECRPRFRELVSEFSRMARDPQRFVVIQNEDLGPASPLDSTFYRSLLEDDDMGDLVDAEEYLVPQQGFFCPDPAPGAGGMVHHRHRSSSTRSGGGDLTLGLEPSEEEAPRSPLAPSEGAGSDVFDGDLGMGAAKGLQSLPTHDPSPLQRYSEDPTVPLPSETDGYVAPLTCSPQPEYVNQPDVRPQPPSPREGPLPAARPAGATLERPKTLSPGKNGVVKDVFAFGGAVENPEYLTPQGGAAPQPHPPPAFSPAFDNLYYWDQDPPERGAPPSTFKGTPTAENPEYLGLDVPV

[9] = test system: human epidermatoid squamous cancer A431; experiment: Tumor-inhibitory effect on A431 transplanted to nude mouse; type: in vivo, BALB/cA nude mouse; conditions: for Weight of animals (g) (without tumor) / Tumor inhibition rate % / Weight of tumors (g) x ± SD: 13 days; for Tumor inhibition rate %: by tumor weight; for Weight of tumors (g) x ± SD: killed 23 days after inoculation
Method: A well-developed solid tumor A431 was selected and cut into several uniform bits of a size of 2-3 mm under sterile conditions, with one bit being inoculated subcutaneously to the right armpit of each of the BALB/cA nude mice using trocar. 7 days after inoculation, the mice were grouped randomly and were intragastrically administrated through mouth for 13 days continuously. The long axis (a) and the short axis (b) of the tumors were measured with a vernier caliper every 4 days. According to the formula V=ab^2/2, the tumor volume (mm^3) could be calculated. The tested animals were neck-off killed 23 days after the inoculation, and anatomized to obtain the tumors. The tumors were weighed, and the tumor inhibition rate was calculated.

SMILES | thermal stability [1] | Purity (%) ([1]; detect time day 0) | Purity (%) ([1]; detect time day 10) | Purity (%) ([1]; detect time day 30) | light stability [2] | Purity (%) ([2]; detect time 0) | Purity (%) ([2]; detect time 10) | Purity (%) ([2]; detect time 30) | stability under the environment of high moisture [3] | Purity (%) ([3]; detect time 0) | Purity (%) ([3]; detect time 10) | Purity (%) ([3]; detect time 30) | food intake [5] | physical signs, appearance, behaviors, activities or shape of dejecta [5] | weight and weight increase of the rats [5] | further results
C=CC(=O)Nc1ccc2ncnc(Nc3ccc(OCc4cccc(F)c4)c(Cl)c3)c2c1.Cc1ccc(S(=O)(=O)O)cc1 [Form C, N-{4-[3-chloro-4-(3-fluoro-benzyloxy)phenylamino]-quinazolin-6-yl}-acrylamide p-Toluenesulfonate] | good | 99.03 | 97.08 | 97.55 | good | 99.03 | 98.54 | 98.42 | comparatively stable | 99.03 | 98.27 | 98.08 | normal | no abnormality | basically similar to the solvent control group | relative tumor proliferation rate T/C ([4]; SKOV-3, 100 mg/kg ig twice a day, 3 weeks, p-Toluenesulfonate): 23.2%; tumor inhibitory effects ([4]; summary in words for SKOV-3, Calu-3 and A549 models, 100 mg/kg ig twice a day): significant tumor inhibitory effects; relative tumor proliferation rate T/C (human lung cancer Calu-3): 39.4%; relative tumor proliferation rate T/C (human lung cancer A549): 58.7%
C=CC(=O)Nc1ccc2ncnc(Nc3ccc(OCc4cccc(F)c4)c(Cl)c3)c2c1 [Compound of formula (I), N-{4-[3-chloro-4-(3-fluoro-benzyloxy)phenylamino]-quinazolin-6-yl}-acrylamide] | – | – | – | – | – | – | – | – | – | – | – | – | – | – | – | inhibiting the growth of A431 cells [6]: relatively good effect; inhibiting the growth of BT-474 cells [7]: relatively good effect; tumor-inhibiting effect on A431 implanted into a nude mouse [8]: significant tumor-inhibiting effect; inhibitory activity against Erb-B2 kinase (Erb-B2 kinase): excellent inhibitory activity
C=CC(=O)Nc1ccc2ncnc(Nc3ccc(OCc4cccc(F)c4)c(Cl)c3)c2c1.Cc1ccc(S(=O)(=O)O)cc1 [Form A, N-{4-[3-chloro-4-(3-fluoro-benzyloxy)phenylamino]-quinazolin-6-yl}-acrylamide p-Toluenesulfonate] | excellent | 98.64 | 98.64 | 98.64 | good | 98.64 | 98.16 | 97.24 | very stable | 98.64 | 98.62 | 98.62 | normal | no abnormality | basically similar to the solvent control group | Weight of animals (g) (without tumor) ([9]; 25 mg/kg ig, A431 nude mouse): 21.58 ± 2.18 g; Tumor inhibition rate % ([9]; 25 mg/kg ig): 29.99%; Weight of tumors (g) x ± SD ([9]; 25 mg/kg ig): 0.79 ± 0.20 g; Weight of animals (g) (without tumor) ([9]; 50 mg/kg ig, A431 nude mouse): 22.87 ± 3.96 g; Tumor inhibition rate % ([9]; 50 mg/kg ig): 38.67%; Weight of tumors (g) x ± SD ([9]; 50 mg/kg ig): 0.69 ± 0.17 g; Weight of animals (g) (without tumor) ([9]; 100 mg/kg ig, A431 nude mouse): 22.13 ± 1.83 g; Tumor inhibition rate % ([9]; 100 mg/kg ig): 43.63%; Weight of tumors (g) x ± SD ([9]; 100 mg/kg ig): 0.64 ± 0.23 g; inhibitory effect on the tumor ([9]; A431 nude mouse, ig, in words): significant inhibitory effect; tumor inhibitory effect ([4]; SKOV-3 nude mouse, ig once a day, in words): significant tumor inhibitory effect

— patent publication US9102629B2, “Polymorphic forms of 4-phenylamine quinazoline derivative, the preparation method and uses thereof” (priority 2008, dated 2015)
